In patent publication US7786083B2, “Metastin derivatives and use thereof” (Takeda Pharmaceutical Company Limited, priority 2006, dated 2010):
*1 amine or outer side, *2 acyl side, *3 side chain or, on linkers, in order; H or OH if unused. Where a SMILES comes first, the peptide text is derived from it. [ ]: non-standard residue; d: D form. X4 = O=C(CCC(=O)[*:2])[C@H](Cc1ccccc1)N[*:1]; X6 = O=C(COC[C@H](Cc1ccccc1)N[*:1])[*:2]; X9 = O=C(CCC[C@H](Cc1ccccc1)N[*:1])[*:2]; Arg(Me) = CNC(=N)NCCC[C@H](N)C(=O)O; Hyp = O=C(O)[C@@H]1C[C@@H](O)CN1; 2Pal = N[C@@H](Cc1ccccn1)C(=O)O; 3Pal = N[C@@H](Cc1cccnc1)C(=O)O; 4Pal = N[C@@H](Cc1ccncc1)C(=O)O; Cha = N[C@@H](CC1CCCCC1)C(=O)O; Abu = CC[C@H](N)C(=O)O; Dap = NC[C@H](N)C(=O)O; Aib = CC(C)(N)C(=O)O

The molecules below were run on metastin receptors (assay: Measurement of agonist activity by assaying changes in intracellular calcium ion level (FLIPR, Fluo-4 NW)). Conditions: specific activity of the EC50 of a test compound based on the EC50 of Metastin (45-54), metastin receptor expression CHO cells.
Format: cell-based, human
Description: 1) Preparation of Human Metastin and Rat Metastin Stable Expression Cell Lines
Human metastin and rat metastin stable expression cell lines were obtained by transfecting the expression plasmid for animal cells into CHO/dhfr^− cells using CellPhect Transfection Kit (manufactured by GE Healthcare). First, 240 μL of Buffer A (attached to CellPhect Transfection Kit) was added to 9.6 μg of plasmid DNA dissolved in 240 μL of distilled water followed by stirring. After the mixture was settled for 10 minutes, 480 μL of Buffer B (attached to CellPhect Transfection Kit) was added to the mixture, which was vigorously stirred to form liposomes containing the DNA. Then, 4×10^5 CHO/dhfr^− cells (obtained from ATCC) were inoculated on a 60 mm Petri dish. After culturing the cells in Ham's F-12 medium (manufactured by Nissui Seiyaku Co., Ltd.) supplemented with 10% fetal bovine serum (manufactured by BIO […], Inc.) at 37° C. for 2 days in 5% carbon dioxide gas, […] of the liposomes were dropwise added to the cells on the Petri dish. After culturing the cells in a CO2 incubator (5% CO2, 37° C.) for 6 hours, the cells were washed twice with serum-free Ham's F-12 medium and 3 mL of 15% glycerol was added to the cells on the Petri dish followed by treatment for 2 minutes. The cells were again washed twice with serum-free Ham's F-12 medium followed by incubation in Ham's F-12 medium supplemented with 10% fetal bovine serum in a CO2 incubator (5% CO2, 37° C.) for 15 hours. The cells were dispersed by trypsin treatment to recover from the Petri dish. The recovered cells were inoculated on a 6-well plate in 1.25×10^4 cells each/well and incubation was initiated in a CO2 incubator (5% CO2, 37° C.) in Dulbecco's modified Eagle medium (DMEM, manufactured by Nissui Seiyaku) containing 10% dialyzed fetal bovine serum (manufactured by JRH BIOSCIENCES, Inc.). The plasmid-transfected CHO transformants grew in the medium but the non-transfected cells gradually died, accordingly the medium was exchanged on Days 1 and 2 after the initiation of incubation to remove the dead cells. Approximately 20 colonies of the CHO transformants that kept growing on Days 8 to 10 after the incubation were isolated. From the cells in these colonies, cells showing high reactivity with the ligand peptide metastin (hereinafter merely referred to as h175 KB19 and h175 KB29 strains) were selected to provide for the following experiment.
Human metastin expression CHO cell line (h175 KB19 strain is described in a separate section) and rat metastin expression CHO cell line (h175 KB29 strain is described in a separate section) were seeded in a 96-well plate (type 3904, manufactured by Corning) at 3×10^4 cells/well, followed by incubation in a CO2 incubator (5% CO2, 37° C.) for 24 hours. For the medium, MEMα medium (nucleic acid-free, manufactured by Nikken Bio Medical Laboratory) supplemented with dialyzed 10% fetal bovine serum (manufactured by Thermo, MultiSer) was used.
3) Loading with Fluo-4 NW in Cells
As an assay buffer, 1× Hanks' balanced salt solution (HBSS, manufactured by GIBCO) supplemented with 0.1% BSA, 20 mM HEPES (pH 7.4, manufactured by GIBCO) and 1 mM Probenecid (manufactured by Molecular Probes) was prepared. The medium in the wells of the cell-seeded plate was removed and 100 μL each of the assay buffer (kept warm at 37° C.) was added to each well. After 10 mL of the assay buffer (the volume for assaying two plates) was charged in one Fluo-4NW dye mix (Component A, Fluo-4 NW calcium assay kit (starter pack), manufactured by Molecular Probes) bottle, the mixture was gently stirred to prepare the Fluo-4 NW loading solution. This loading solution was charged in each well by 50 μl each and reacted in a CO2 incubator (5% CO2, 37° C.) for 30 minutes for loading with Fluo-4 NW into the cells. Subsequently, the cells were settled at room temperature (25° C.) for 15 minutes and then used for assay.
4) Measurement of Agonist Activity […]

Structure (SMILES)	Specific Activity
CNC(=N)NCCC[C@H](NC(=O)[C@H](CC(C)C)NC(=O)C(C)(C)NC(=O)[C@H](Cc1ccccc1)NC(=O)[C@@H](NC(=O)[C@H](CC(N)=O)NC(=O)[C@@H]1C[C@@H](O)CN1C(=O)[C@@H](Cc1ccc(O)cc1)NC(C)=O)[C@@H](C)O)C(=O)N[C@@H](Cc1c[nH]c2ccccc12)C(N)=O [Compound No. 811, des(1)-Ac-[D-Tyr2,Hyp3,Thr5,Aib7,Arg(Me)9,Trp10]MS10] (Ac-[dY][Hyp]NTF[Aib]L[Arg(Me)]W-NH2)	1.5
CC[C@H](NC(=O)[C@H](Cc1ccccc1)NC(=O)[C@@H](NC(=O)[C@H](CC(N)=O)NC(=O)[C@@H]1C[C@@H](O)CN1C(=O)[C@@H](Cc1ccc(O)cc1)NC(C)=O)[C@@H](C)O)C(=O)N[C@@H](CC(C)C)C(=O)N[C@@H](CCCNC(=N)NC)C(=O)N[C@@H](Cc1c[nH]c2ccccc12)C(N)=O [Compound No. 818, des(1)-Ac-[D-Tyr2,Hyp3,Thr5,Abu7,Arg(Me)9,Trp10]MS10] (Ac-[dY][Hyp]NTF[Abu]L[Arg(Me)]W-NH2)	1.0
CNC(=N)NCCC[C@H](NC(=O)[C@H](CC(C)C)NC(=O)CNC(=O)[C@H](CC1CCCCC1)NC(=O)[C@@H](NC(=O)[C@H](CC(N)=O)NC(=O)[C@@H]1C[C@@H](O)CN1C(=O)[C@@H](Cc1ccc(O)cc1)NC(C)=O)[C@@H](C)O)C(=O)N[C@@H](Cc1c[nH]c2ccccc12)C(N)=O [Compound No. 822, des(1)-Ac-[D-Tyr2,Hyp3,Thr5,Cha6,Arg(Me)9,Trp10]MS10] (Ac-[dY][Hyp]NT[Cha]GL[Arg(Me)]W-NH2)	0.3
CNC(=N)NCCC[C@H](NC(=O)[C@H](CC(C)C)NC(=O)[C@H](C)NC(=O)[C@H](CC1CCCCC1)NC(=O)[C@@H](NC(=O)[C@H](CC(N)=O)NC(=O)[C@@H]1C[C@@H](O)CN1C(=O)[C@@H](Cc1ccc(O)cc1)NC(C)=O)[C@@H](C)O)C(=O)N[C@@H](Cc1c[nH]c2ccccc12)C(N)=O [Compound No. 823, des(1)-Ac-[D-Tyr2,Hyp3,Thr5,Cha6,Ala7,Arg(Me)9,Trp10]MS10] (Ac-[dY][Hyp]NT[Cha]AL[Arg(Me)]W-NH2)	0.5
CNC(=N)NCCC[C@H](NC(=O)[C@H](CC(C)C)NC(=O)[C@H](CN)NC(=O)[C@H](Cc1ccccc1)NC(=O)[C@@H](NC(=O)[C@H](CC(N)=O)NC(=O)[C@@H]1C[C@@H](O)CN1C(=O)[C@@H](Cc1ccc(O)cc1)NC(C)=O)[C@@H](C)O)C(=O)N[C@@H](Cc1c[nH]c2ccccc12)C(N)=O [Compound No. 827, des(1)-Ac-[D-Tyr2,Hyp3,Thr5,Dap7,Arg(Me)9,Trp10]MS10] (Ac-[dY][Hyp]NTF[Dap]L[Arg(Me)]W-NH2)	1.3
CNC(=N)NCCC[C@H](NC(=O)[C@H](CC(C)C)NC(=O)[C@H](COC)NC(=O)[C@H](Cc1ccccc1)NC(=O)[C@@H](NC(=O)[C@H](CC(N)=O)NC(=O)[C@@H]1C[C@@H](O)CN1C(=O)[C@@H](Cc1ccc(O)cc1)NC(C)=O)[C@@H](C)O)C(=O)N[C@@H](Cc1c[nH]c2ccccc12)C(N)=O [Compound No. 828, des(1)-Ac-[D-Tyr2,Hyp3,Thr5,Ser(Me)7,Arg(Me)9,Trp10]MS10] (Ac-[dY][Hyp]NTFS(Me)L[Arg(Me)]W-NH2)	1.2
CNC(=N)NCCC[C@H](NC(=O)[C@H](CC(C)C)NC(=O)COC[C@H](Cc1ccccc1)NC(=O)[C@@H](NC(=O)[C@H](CC(N)=O)NC(=O)[C@@H]1C[C@@H](O)CN1C(=O)[C@@H](Cc1ccc(O)cc1)NC(C)=O)[C@@H](C)O)C(=O)N[C@@H](Cc1c[nH]c2ccccc12)C(N)=O [Compound No. 834, des(1)-Ac-[D-Tyr2,Hyp3,Thr5,Phe6Ψ(CH2O)Gly7,Arg(Me)9,Trp10]MS10] (Ac-[dY][Hyp]NT[X6]L[Arg(Me)]W-NH2)	0.5
CNC(=N)NCCC[C@H](NC(=O)[C@H](CC(C)C)NC(=O)CNC(=O)[C@H](Cc1ccccn1)NC(=O)[C@@H](NC(=O)[C@H](CC(N)=O)NC(=O)[C@@H]1C[C@@H](O)CN1C(=O)[C@@H](Cc1ccc(O)cc1)NC(C)=O)[C@@H](C)O)C(=O)N[C@@H](Cc1c[nH]c2ccccc12)C(N)=O [Compound No. 839, des(1)-Ac-[D-Tyr2,Hyp3,Thr5,Pya(2)6,Arg(Me)9,Trp10]MS10] (Ac-[dY][Hyp]NT[2Pal]GL[Arg(Me)]W-NH2)	1.2
CNC(=N)NCCC[C@H](NC(=O)[C@H](CC(C)C)NC(=O)[C@@H](NC(=O)[C@H](Cc1ccccc1)NC(=O)[C@@H](NC(=O)[C@H](CC(N)=O)NC(=O)[C@@H]1C[C@@H](O)CN1C(=O)[C@@H](Cc1ccc(O)cc1)NC(C)=O)[C@@H](C)O)C(C)C)C(=O)N[C@@H](Cc1c[nH]c2ccccc12)C(N)=O [Compound No. 847, des(1)-Ac-[D-Tyr2,Hyp3,Thr5,Val7,Arg(Me)9,Trp10]MS10] (Ac-[dY][Hyp]NTFVL[Arg(Me)]W-NH2)	1.7
CNC(=N)NCCC[C@H](NC(=O)[C@H](CC(C)C)NC(=O)CNC(=O)[C@H](Cc1cccnc1)NC(=O)[C@@H](NC(=O)[C@H](CC(N)=O)NC(=O)[C@@H]1C[C@@H](O)CN1C(=O)[C@@H](Cc1ccc(O)cc1)NC(C)=O)[C@@H](C)O)C(=O)N[C@@H](Cc1c[nH]c2ccccc12)C(N)=O [Compound No. 848, des(1)-Ac-[D-Tyr2,Hyp3,Thr5,Pya(3)6,Arg(Me)9,Trp10]MS10] (Ac-[dY][Hyp]NT[3Pal]GL[Arg(Me)]W-NH2)	0.9
CNC(=N)NCCC[C@H](NC(=O)[C@H](CC(C)C)NC(=O)CNC(=O)[C@H](Cc1ccncc1)NC(=O)[C@@H](NC(=O)[C@H](CC(N)=O)NC(=O)[C@@H]1C[C@@H](O)CN1C(=O)[C@@H](Cc1ccc(O)cc1)NC(C)=O)[C@@H](C)O)C(=O)N[C@@H](Cc1c[nH]c2ccccc12)C(N)=O [Compound No. 849, des(1)-Ac-[D-Tyr2,Hyp3,Thr5,Pya(4)6,Arg(Me)9,Trp10]MS10] (Ac-[dY][Hyp]NT[4Pal]GL[Arg(Me)]W-NH2)	0.9
CNC(=N)NCCC[C@H](NC(=O)[C@H](CC(C)C)NC(=O)CCC[C@H](Cc1ccccc1)NC(=O)[C@@H](NC(=O)[C@H](CC(N)=O)NC(=O)[C@@H]1C[C@@H](O)CN1C(=O)[C@@H](Cc1ccc(O)cc1)NC(C)=O)[C@@H](C)O)C(=O)N[C@@H](Cc1c[nH]c2ccccc12)C(N)=O [Compound No. 850, des(1)-Ac-[D-Tyr2,Hyp3,Thr5,Phe6Ψ(CH2CH2)Gly7,Arg(Me)9,Trp10]MS10] (Ac-[dY][Hyp]NT[X9]L[Arg(Me)]W-NH2)	1.3
CNC(=N)NCCC[C@H](NC(=O)[C@H](CC(C)C)NC(=O)CCC(=O)[C@H](Cc1ccccc1)NC(=O)[C@@H](NC(=O)[C@H](CC(N)=O)NC(=O)[C@@H]1C[C@@H](O)CN1C(=O)[C@@H](Cc1ccc(O)cc1)NC(C)=O)[C@@H](C)O)C(=O)N[C@@H](Cc1c[nH]c2ccccc12)C(N)=O [Compound No. 851, des(1)-Ac-[D-Tyr2,Hyp3,Thr5,Phe6Ψ(COCH2)Gly7,Arg(Me)9,Trp10]MS10] (Ac-[dY][Hyp]NT[X4]L[Arg(Me)]W-NH2)	1.1
CNC(=N)NCCC[C@H](NC(=O)[C@H](CC(C)C)NC(=O)CNC(=O)[C@H](Cc1ccccc1)NC(=O)[C@@H](NC(=O)[C@H](CC(N)=O)NC(=O)[C@H](CCC(=O)O)NC(=O)[C@@H](Cc1ccc(O)cc1)NC(C)=O)[C@@H](C)O)C(=O)N[C@@H](Cc1c[nH]c2ccccc12)C(N)=O [Compound No. 852, des(1)-Ac-[D-Tyr2,Glu3,Thr5,Arg(Me)9,Trp10]MS10] (Ac-[dY]ENTFGL[Arg(Me)]W-NH2)	0.5
